This is an account of results in publication PMC6272152, “The Role of Phosphoglycans in the Susceptibility of Leishmania mexicana to the Temporin Family of Anti-Microbial Peptides” (Molecules, 2015).

In assay [1] the test system is L. mexicana ∆lpg2 promastigotes (lacking LPG and PPG). The assay can be described thus: alamarBlue viability assay, ∆lpg2 mutant promastigotes. It is filed as cell-based, Leishmania mexicana. The conditions noted are these: for ED50 L. mexicana ∆lpg2: ∆lpg2 mutant promastigotes, alamarBlue viability vs DMSO control, 2–100 µM peptide, 1 h preincubation serum-free at 26 °C, then 24 h, mean (range) of at least 3 independent experiments in triplicate. As to the method: (§1) Figure 2 Activity of the temporin peptides against ∆lpg1 and ∆lpg2 promastigote L. mexicana. Using the alamarBlue® assay system, L. mexicana ∆lpg1 (A) and ∆lpg2 (B) mutant promastigote viability in the presence of various concentrations (2–100 µM) of the temporin peptides was determined with respect to a DMSO control. Amphotericin B (2–100 µM) was utilized as a positive control. Data points represent the mean of 3 independent experiments performed in triplicate. Standard deviation indicated. Cell viability <50% indicated by red bars.
Proteophosphogylcans (PPGs) are a large range of secreted and cell surface associated parasite glycoconjugates which, like LPG, carry a negative charge. Both axenic and intramacrophage L. mexicana amastigotes lack cell surface associated PPG, although the intracellular parasites do secrete a form of PPG known as aPPG [26, 27]. Targeted deletion of lpg2, a Golgi GDP-Man transporter, to create ∆lpg2 [25] prevented the formation of the phosphoglycan repeats that make up the backbone of LPG and PPG leaving the promastigote surface devoid of these negatively charged macromolecules. […] Like the temporins, amphotericin B is a pore forming compound [28].
(§2) Leishmania mexicana (MNYC/BZ/62/M379) wild type and LPG mutant parasites (∆lpg1 [23] and ∆lpg2 [25]) were maintained at 26 °C in Schneider’s Drosophila media (Sigma Aldrich) supplemented with heat inactivated foetal bovine sera (15% for promastigotes and mutants, and 20% for amastigotes; Biosera). Promastigotes were transformed into axenic amastigotes by a pH and temperature shift as previously described. Cells were counted using a Neubauer Improved Haemocytometer. Cytotoxicity analyses were performed in 96-well plates (Costar, Corning Inc., Amsterdam, The Netherlands) using alamarBlue® (Life Technologies, Paisley, UK) with some modifications to the published, optimized protocol. Briefly, to mitigate against the effects of serum on the efficacy of the peptides, promastigote and amastigote L. mexicana were preincubated (26 °C for promatastigotes; 33 °C for amastigotes) with the temporins (2–100 µM) in 10 µL of serum-free media at 4 × 10^6 mL^−1 for 1 h before the addition of 90 µL of complete media. Following incubation at the appropriate temperature for 24 h, 10 µL of alamarBlue® was added to each well and the plates incubated for a further 4 h prior to assessing cell viability using a fluorescent plate reader (Biotek UK, Potton, UK; 560EX nm/600EM nm). All data points were in triplicate, with amphotericin B as positive and DMSO as negative controls. All of the experiments described above were carried out on a minimum of three separate occasions to ensure a robust data set was collected.
(Alamar Blue is a resazurin reagent that responds to reducing activity.)

Assay [2] has as its system L. mexicana ∆lpg1 promastigotes (lacking LPG). The assay can be described thus: alamarBlue viability assay, ∆lpg1 mutant promastigotes. It is filed as cell-based, Leishmania mexicana. Particulars: alamarBlue viability vs DMSO control, 2–100 µM peptide, 1 h preincubation serum-free at 26 °C, then 24 h, mean (range) of at least 3 independent experiments in triplicate. As to the method: Previously it has been postulated that LPG, which forms a thick negatively charged layer, protects the promatigote parasite from cationic AMPs by capturing them and preventing interaction with the cell surface. […] To test this hypothesis the five temporins were assayed for their activity against L. mexicana promastigotes engineered to lack LPG, ∆lpg1 [23]. […] The results obtained were perhaps surprising, with the temporins showing little or no difference in efficacy against the ∆lpg1 mutant when compared with the wild type L. mexicana promastigotes (Figure 1A and Figure 2A; Table 2). However, it is notable the that efficacy of temporins A and B have previously been reported to be unchanged against a similar, although less defined, L. donovani LPG mutant.
as §1, §2

Assay [3] concerns L. mexicana promastigote (wild type). The assay can be described thus: alamarBlue viability assay, wild type promastigotes. The assay is classed as cell-based, Leishmania mexicana (MNYC/BZ/62/M379). The conditions noted are these: alamarBlue viability vs DMSO control, 2–100 µM peptide, 1 h preincubation in serum-free media at 26 °C, then complete media 24 h, alamarBlue 4 h, fluorescence, mean (range) of at least 3 independent experiments in triplicate. The method, then:
(§3) Figure 1 Activity of the temporin peptides against wild type promastigote and amastigote L. mexicana. Using the alamarBlue® assay system, L. mexicana promastigote (A) and amastigote (B) viability in the presence of various concentrations (2–100 µM) of the temporin peptides was determined with respect to a DMSO control. Amphotericin B (2–100 µM) was utilized as a positive control. Data points represent the mean of 3 independent experiments performed in triplicate. Standard deviation indicated. Cell viability <50% indicated by red bars.
as §2

For assay [4], the system named is L. pifanoi axenic amastigotes. The conditions noted are these: cited from earlier work. The source says:
(§4) L. infantum is an Old World species and a member of the L. donovani complex, causing visceral disease in the Mediterranean basin, which has subsequently spread to Latin America where it is sometimes known as L. chagasi. Like L. mexicana, L. pifanoi is a New World species, however it is part of the subgenus Viannia whereas L. mexicana is part of the subgenus Leishmania which actually makes it ...

Assay [5] relates to L. donovani LPG mutant. Particulars: similar, less defined LPG mutant; cited from earlier work. The source says:
Previously it has been postulated that LPG, which forms a thick negatively charged layer, protects the promatigote parasite from cationic AMPs by capturing them and preventing interaction with the cell surface. […] To t ...

For assay [6], the system named is L. mexicana amastigote. The assay can be described thus: alamarBlue viability assay, axenic amastigotes. The conditions noted are these: for ED50 L. mexicana Amastigote: alamarBlue viability vs DMSO control, 2–100 µM peptide, 1 h preincubation in serum-free media at 33 °C, then complete media 24 h, alamarBlue 4 h, fluorescence, mean (range) of at least 3 independent experiments in triplicate. It is filed as cell-based, Leishmania mexicana (MNYC/BZ/62/M379). As to the method: as §3, §2

The test system of assay [7] is L. infantum axenic amastigotes. Particulars: cited from earlier work.
Excerpt: as §4

With `C[C@@H]1[C@H](O)[C@@H](C)/C=C/C=C/C=C/C=C/C=C/C=C/C=C/[C@H](O[C@@H]2O[C@H](C)[C@@H](O)[C@H](N)[C@@H]2O)C[C@@H]2O[C@](O)(C[C@@H](O)C[C@@H](O)[C@H](O)CC[C@@H](O)C[C@@H](O)CC(=O)O[C@H]1C)C[C@H](O)[C@H]2C(=O)O` [amphotericin B, Amphotericin B, reference compound], the “efficacy against ∆lpg2 compared with wild type promastigotes” value in assay [1] (positive control, 2–100 µM, alamarBlue, Figure 2B) is listed as “less effective”.
On to “FLPLIGRVLSGIL-NH2 [Temporin A, amphibian-derived temporin antimicrobial peptide, […]-NH2]”, for which the “ED50 L. mexicana ∆lpg1” value in assay [2] is listed as 11 (8–16) µM. Further, the “ED50 L. mexicana Promastiogte” value in assay [3] is on record as 8 (6–14) µM; in assay [3] (listed as temporin A), 8 µM. In addition, the “ED50 L. mexicana ∆lpg2” value in assay [1] is on record as 26 (21–39) µM; in assay [1] (listed as temporin A), 26 µM. Besides, the “activity against axenic amastigotes of L. pifanoi” value in assay [4] is on record as “significant activity”. Moreover, in assay [5], the “efficacy against L. donovani LPG mutant” value is listed as “unchanged”. Further, the “ED50 L. mexicana Amastigote” value in assay [6] was about 100 µM; in assay [6] (listed as temporin A) it was “approximately 100 µM”.
For the molecule “FLSGIVGMLGKLF-NH2 [Temporin 1Sa, amphibian-derived temporin antimicrobial peptide, […]-NH2]”, the “ED50 L. mexicana ∆lpg1” value in assay [2] is reported as 6 (3–18) µM. Further, the “ED50 L. mexicana Promastiogte” value in assay [3] is 4 (3–13) µM; in assay [3] (listed as temporin 1Sa), 4 µM. Further, the “ED50 L. mexicana ∆lpg2” value in assay [1] is recorded as 31 (28–35) µM; in assay [1] (listed as 1Sa), 31 µM. Also, the “activity against axenic amastigotes of L. infantum” value in assay [7] was “significant activity”. In addition, the results for the “ED50 L. mexicana Amastigote” value in assay [6] and in assay [6] (listed as 1Sa) were 42 (35–44) µM and 42 µM, respectively.
For the molecule “FVQWFSKFLGRIL-NH2 [Temporin L, amphibian-derived temporin antimicrobial peptide, …-NH2]”, in assay [2], the “ED50 L. mexicana ∆lpg1” value was 4 (3–6) µM. In addition, the figures for the “ED50 L. mexicana Promastiogte” value in assay [3] and in assay [3] (listed as L) were 5 (5–6) µM and 5 µM, respectively. Besides, the entries for the “ED50 L. mexicana ∆lpg2” value in assay [1] and in assay [1] (listed as L) were 9 (8–12) µM and 9 µM, respectively. Further, the “ED50 L. mexicana Amastigote” value in assay [6] is 83 (46–93) µM; in assay [6] (listed as L), 83 µM.
For “LLPIVGNLLKSLL-NH2 [Temporin B, amphibian-derived temporin antimicrobial peptide, […]-NH2]”, in assay [2], the “ED50 L. mexicana ∆lpg1” value is 39 (28–70) µM. The “ED50 L. mexicana Promastiogte” value in assay [3] was 38 (24–64) µM; in assay [3] (listed as temporin B), 38 µM. The “ED50 L. mexicana ∆lpg2” value in assay [1] is 41 (40–41) µM. In addition, the “activity against axenic amastigotes of L. pifanoi” value in assay [4] was “significant activity”. Moreover, in assay [5], the “efficacy against L. donovani LPG mutant” value was “unchanged”. In assay [6] (100 µM, alamarBlue), the “activity against amastigote form at the maximal concentration tested” value was “inactive”. Further, the “ED50 L. mexicana Amastigote” value in assay [6] is on record as over 100 µM.
